Experimental data reported in US10947188B2, “Small molecule ferroptosis inducers” (THE TRUSTEES OF COLUMBIA UNIVERSITY IN THE CITY OF NEW YORK, priority 2016, dated 2021).
Where a SMILES comes first, the peptide text is derived from it. The star is where a group is joined. Cbz = O=C(OCc1ccccc1)*

Test system: BJeLR
Test: Modulatory profiling: Alamar Blue viability, lethal compound cotreated with death modulator (EC50, AUC)
Format: cell-based, human
Parameters: AUC, modulator BJ.Gd3+ / AUC, modulator BJ.LNAME / AUC, modulator BJ.Lmin / AUC, modulator BJ.3MA / AUC, modulator BJ.ALLN / AUC, modulator BJ.Boc D / AUC, modulator BJ.CHX / AUC, modulator BJ.Co2+ / AUC, modulator BJ.Nec-1 / AUC, modulator BJ.Pepstatin / AUC, modulator BJ.TLCK / AUC, modulator BJ.atoc / AUC, modulator BJ.trolox / AUC, modulator BJ.zVAD: unit not given beside the values
Conditions: BJeLR cells, modulatory profile value (AUC); for AUC, modulator BJ.3MA: lethal compound cotreated with modulator 3MA; for AUC, modulator BJ.ALLN: lethal compound cotreated with modulator ALLN; for AUC, modulator BJ.Boc D: lethal compound cotreated with modulator Boc D; for AUC, modulator BJ.CHX: lethal compound cotreated with modulator CHX; for AUC, modulator BJ.Co2+: lethal compound cotreated with modulator Co2+; for AUC, modulator BJ.DPQ: lethal compound cotreated with modulator DPQ; for AUC, modulator BJ.Gd3+: lethal compound cotreated with modulator Gd3+; for AUC, modulator BJ.LNAME: lethal compound cotreated with modulator LNAME; for AUC, modulator BJ.Lmin/NAD+: lethal compound cotreated with modulator Lmin/NAD+; for AUC, modulator BJ.Lmin: lethal compound cotreated with modulator Lmin; for AUC, modulator BJ.NAD+: lethal compound cotreated with modulator NAD+; for AUC, modulator BJ.NMMA: lethal compound cotreated with modulator NMMA; for AUC, modulator BJ.Nec-1: lethal compound cotreated with modulator Nec-1; for AUC, modulator BJ.Pepstatin: lethal compound cotreated with modulator Pepstatin; for AUC, modulator BJ.TLCK: lethal compound cotreated with modulator TLCK; for AUC, modulator BJ.atoc: lethal compound cotreated with modulator atoc; for AUC, modulator BJ.trolox: lethal compound cotreated with modulator trolox; for AUC, modulator BJ.zVAD: lethal compound cotreated with modulator zVAD

SMILES: CC(C)=CCCC1=CCC(CNCCCN(C)C)C(C)C1 (stereo not drawn) [CIL28]
- AUC, modulator BJ.3MA: 0.0433
- AUC, modulator BJ.ALLN: −0.02065
- AUC, modulator BJ.Boc D: −0.02549
- AUC, modulator BJ.CHX: −0.01119
- AUC, modulator BJ.Co2+: 0.03417
- AUC, modulator BJ.DPQ: 0.009235
- AUC, modulator BJ.Gd3+: −0.07741
- AUC, modulator BJ.LNAME: −0.04858
- AUC, modulator BJ.Lmin/NAD+: −0.02578
- AUC, modulator BJ.Lmin: −0.053
- AUC, modulator BJ.NAD+: 0.06231
- AUC, modulator BJ.NMMA: 0.000264
- AUC, modulator BJ.Nec-1: 0.005737
- AUC, modulator BJ.Pepstatin: 0.06166
- AUC, modulator BJ.TLCK: −0.09417
- AUC, modulator BJ.atoc: 0.05295
- AUC, modulator BJ.trolox: 0.06039
- AUC, modulator BJ.zVAD: 0.006234

SMILES: Cc1cccc(-n2ncc(Cl)c(Cl)c2=O)c1 [CIL22]
- AUC, modulator BJ.3MA: −0.04329
- AUC, modulator BJ.ALLN: −0.03232
- AUC, modulator BJ.Boc D: −0.0406
- AUC, modulator BJ.CHX: 0.1136
- AUC, modulator BJ.Co2+: 0.07615
- AUC, modulator BJ.DPQ: 0.005752
- AUC, modulator BJ.Gd3+: 0.005899
- AUC, modulator BJ.LNAME: 0.0123
- AUC, modulator BJ.Lmin/NAD+: 0.07278
- AUC, modulator BJ.Lmin: 0.002645
- AUC, modulator BJ.NAD+: −0.005902
- AUC, modulator BJ.NMMA: −0.007412
- AUC, modulator BJ.Nec-1: −0.01633
- AUC, modulator BJ.Pepstatin: 0.02724
- AUC, modulator BJ.TLCK: −0.01321
- AUC, modulator BJ.atoc: 0.01015
- AUC, modulator BJ.trolox: 0.0184
- AUC, modulator BJ.zVAD: 0.03093

SMILES: CN(C)CC(O)Cn1c2ccc(Cl)cc2c2cc(Cl)ccc21 (stereo not drawn) [CIL5]
- AUC, modulator BJ.3MA: 0.08524
- AUC, modulator BJ.ALLN: −0.1163
- AUC, modulator BJ.Boc D: −0.07609
- AUC, modulator BJ.CHX: −0.0324
- AUC, modulator BJ.Co2+: 0.04705
- AUC, modulator BJ.DPQ: 0.002876
- AUC, modulator BJ.Gd3+: 0.01146
- AUC, modulator BJ.LNAME: −0.009787
- AUC, modulator BJ.Lmin/NAD+: −0.01738
- AUC, modulator BJ.Lmin: −0.03698
- AUC, modulator BJ.NAD+: 2.99E−05
- AUC, modulator BJ.NMMA: −0.0271
- AUC, modulator BJ.Nec-1: 0.03195
- AUC, modulator BJ.Pepstatin: 0.06042
- AUC, modulator BJ.TLCK: −0.02603
- AUC, modulator BJ.atoc: −0.00271
- AUC, modulator BJ.trolox: 0.0183
- AUC, modulator BJ.zVAD: −0.02054

SMILES: COc1cc([C@@H]2c3cc4c(cc3[C@H](O)[C@H]3COC(=O)[C@H]23)OCO4)cc(OC)c1OC [Podophyllotoxin]
- AUC, modulator BJ.3MA: −0.01267
- AUC, modulator BJ.ALLN: −0.003673
- AUC, modulator BJ.Boc D: 0.003542
- AUC, modulator BJ.CHX: 0.1228
- AUC, modulator BJ.Co2+: 0.09497
- AUC, modulator BJ.DPQ: −0.03896
- AUC, modulator BJ.Gd3+: 0.01784
- AUC, modulator BJ.LNAME: 0.005868
- AUC, modulator BJ.Lmin/NAD+: 0.1012
- AUC, modulator BJ.Lmin: 0.05457
- AUC, modulator BJ.NAD+: 0.09627
- AUC, modulator BJ.NMMA: −0.007043
- AUC, modulator BJ.Nec-1: −0.04167
- AUC, modulator BJ.Pepstatin: 0.02214
- AUC, modulator BJ.TLCK: −0.02042
- AUC, modulator BJ.atoc: 0.007072
- AUC, modulator BJ.trolox: −0.01282
- AUC, modulator BJ.zVAD: 0.0496

SMILES: CC(C)[C@@H]1NC(=O)[C@H](C)OC(=O)[C@@H](C(C)C)NC(=O)[C@@H](C(C)C)OC(=O)[C@H](C(C)C)NC(=O)[C@H](C)OC(=O)[C@@H](C(C)C)NC(=O)[C@@H](C(C)C)OC(=O)[C@H](C(C)C)NC(=O)[C@H](C)OC(=O)[C@@H](C(C)C)NC(=O)[C@@H](C(C)C)OC1=O [Vatinomycin]
- AUC, modulator BJ.3MA: 0.03326
- AUC, modulator BJ.ALLN: 0.02063
- AUC, modulator BJ.Boc D: 0.02046
- AUC, modulator BJ.CHX: 0.3573
- AUC, modulator BJ.Co2+: 0.09595
- AUC, modulator BJ.DPQ: −0.02201
- AUC, modulator BJ.Gd3+: −0.0004394
- AUC, modulator BJ.LNAME: −0.01323
- AUC, modulator BJ.Lmin/NAD+: 0.1525
- AUC, modulator BJ.Lmin: −0.007847
- AUC, modulator BJ.NAD+: 0.1101
- AUC, modulator BJ.NMMA: −0.02634
- AUC, modulator BJ.Nec-1: 0.01734
- AUC, modulator BJ.Pepstatin: 0.04946
- AUC, modulator BJ.TLCK: 0.006602
- AUC, modulator BJ.atoc: 0.285
- AUC, modulator BJ.trolox: 0.06867
- AUC, modulator BJ.zVAD: 0.03769

SMILES: CC(C)C[C@@H](C=O)NC(=O)[C@H](CC(C)C)NC(=O)[C@H](CC(C)C)NC(=O)OCc1ccccc1 [MG132, reference compound] (Cbz-Leu-Leu-Leu-aldehyde)
- AUC, modulator BJ.3MA: −0.04346
- AUC, modulator BJ.ALLN: −0.2701
- AUC, modulator BJ.Boc D: 0.04216
- AUC, modulator BJ.CHX: 0.2476
- AUC, modulator BJ.Co2+: 0.1849
- AUC, modulator BJ.DPQ: −0.01327
- AUC, modulator BJ.Gd3+: 0.03163
- AUC, modulator BJ.LNAME: 0.01789
- AUC, modulator BJ.Lmin/NAD+: 0.2064
- AUC, modulator BJ.Lmin: 0.1487
- AUC, modulator BJ.NAD+: 0.04274
- AUC, modulator BJ.NMMA: 0.02073
- AUC, modulator BJ.Nec-1: −0.0504
- AUC, modulator BJ.Pepstatin: −0.02291
- AUC, modulator BJ.TLCK: 0.1241
- AUC, modulator BJ.atoc: −0.002326
- AUC, modulator BJ.trolox: −0.01449
- AUC, modulator BJ.zVAD: −0.08452

SMILES: [N-]=[N+]=[N-].[Na+] [NaN3]
- AUC, modulator BJ.3MA: −0.09559
- AUC, modulator BJ.ALLN: −0.00382
- AUC, modulator BJ.Boc D: −0.007273
- AUC, modulator BJ.CHX: 0.07262
- AUC, modulator BJ.Co2+: −0.02123
- AUC, modulator BJ.DPQ: −0.06947
- AUC, modulator BJ.Gd3+: 0.01113
- AUC, modulator BJ.LNAME: −0.01832
- AUC, modulator BJ.Lmin/NAD+: −0.007837
- AUC, modulator BJ.Lmin: −0.08417
- AUC, modulator BJ.NAD+: 0.0696
- AUC, modulator BJ.NMMA: 0.005874
- AUC, modulator BJ.Nec-1: −0.05229
- AUC, modulator BJ.Pepstatin: 0.01611
- AUC, modulator BJ.TLCK: 0.032
- AUC, modulator BJ.atoc: −0.005135
- AUC, modulator BJ.trolox: −0.03837
- AUC, modulator BJ.zVAD: −0.001065

SMILES: COc1ccc(Nc2ccc3c(c2)=NC2(CCCCC2)[N+]=3[O-])cc1 [CIL9]
- AUC, modulator BJ.3MA: 0.0465
- AUC, modulator BJ.ALLN: −0.1202
- AUC, modulator BJ.Boc D: −0.06171
- AUC, modulator BJ.CHX: 0.03696
- AUC, modulator BJ.Co2+: −0.009162
- AUC, modulator BJ.DPQ: −0.01225
- AUC, modulator BJ.Gd3+: −0.01038
- AUC, modulator BJ.LNAME: 0.01336
- AUC, modulator BJ.Lmin/NAD+: 0.01499
- AUC, modulator BJ.Lmin: −0.03967
- AUC, modulator BJ.NAD+: 0.0007181
- AUC, modulator BJ.NMMA: −0.01541
- AUC, modulator BJ.Nec-1: 0.02689
- AUC, modulator BJ.Pepstatin: 0.0182
- AUC, modulator BJ.TLCK: −0.01752
- AUC, modulator BJ.atoc: 0.02754
- AUC, modulator BJ.trolox: 0.05397
- AUC, modulator BJ.zVAD: −0.02708

SMILES: CC(/C=C/C(=O)NO)=C\[C@@H](C)C(=O)c1ccc(N(C)C)cc1 [TrichostatinA]
- AUC, modulator BJ.3MA: −0.004309
- AUC, modulator BJ.ALLN: −0.08774
- AUC, modulator BJ.Boc D: 0.09612
- AUC, modulator BJ.CHX: 0.2588
- AUC, modulator BJ.Co2+: 0.3091
- AUC, modulator BJ.DPQ: −0.009523
- AUC, modulator BJ.Gd3+: −0.008802
- AUC, modulator BJ.LNAME: −0.04203
- AUC, modulator BJ.Lmin/NAD+: 0.1597
- AUC, modulator BJ.Lmin: 0.08423
- AUC, modulator BJ.NAD+: 0.05544
- AUC, modulator BJ.NMMA: −0.01861
- AUC, modulator BJ.Nec-1: −0.04751
- AUC, modulator BJ.Pepstatin: −0.01284
- AUC, modulator BJ.TLCK: 0.02879
- AUC, modulator BJ.atoc: −0.01806
- AUC, modulator BJ.trolox: −0.02672
- AUC, modulator BJ.zVAD: 0.1198

SMILES: CC(C)C[C@H](NC(=O)[C@H](CC(C)C)NC(=O)[C@H](CC(C)C)NC(=O)OCc1ccccc1)B(O)O [MG262]
- AUC, modulator BJ.3MA: −0.0362
- AUC, modulator BJ.ALLN: −0.1989
- AUC, modulator BJ.Boc D: 0.01756
- AUC, modulator BJ.CHX: 0.2438
- AUC, modulator BJ.Co2+: 0.1109
- AUC, modulator BJ.DPQ: 0.005064
- AUC, modulator BJ.Gd3+: 0.02134
- AUC, modulator BJ.LNAME: 0.02272
- AUC, modulator BJ.Lmin/NAD+: 0.152
- AUC, modulator BJ.Lmin: 0.1437
- AUC, modulator BJ.NAD+: 0.06084
- AUC, modulator BJ.NMMA: −0.006928
- AUC, modulator BJ.Nec-1: −0.01342
- AUC, modulator BJ.Pepstatin: 0.006624
- AUC, modulator BJ.TLCK: 0.09405
- AUC, modulator BJ.atoc: 0.05198
- AUC, modulator BJ.trolox: 0.008087
- AUC, modulator BJ.zVAD: −0.05498
